Experimental data: PubChem BioAssay AID2060888 (Molecular Pharmacology Branch, DTP, NCI, 2025)

Test system: 695427-040-R-J1-PDC complex spheroid viability
Experiment: Anticancer human tumor 695427-040-R-J1-PDC patient-derived colon adenocarcinoma cell line growth inhibition [RAS]
Details: for IC50: curve of first compound; for viability, T/C: stronger effect = lower value
How it was run: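 Tumour cells grown as complex spheroids with HUVEC endothelial cells and mesenchymal stem cells, treated with RAS pathway inhibitor combinations. Each agent spans half-log steps from near clinical Cmax, or 10 microM where Cmax is unknown.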
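Note: viability read after seven days of drug exposure.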
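Throughout, for viability, T/C: 100% = DMSO vehicle control viability.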

CCC(CC)c1cc(NC2CCC(N)C2)n2nccc2n1 (configuration not stated) + C#Cc1c(F)ccc2cc(O)cc(-c3ncc4c(N5CC6CCC(C5)N6)nc(OCC56CCCN5CC(F)C6)nc4c3F)c12
IC50 (second compound 0.0316 µM): 1960 nM | IC50 (second compound 0.1 µM): 1890 nM | IC50 (second compound 0.316 µM): 1800 nM | IC50 (second compound 1 µM): 1600 nM | IC50 (second compound 3.16 µM): 1240 nM | IC50 (second compound 10 µM): < 31.6 nM | viability, T/C (second compound 0.0316 µM, first compound 0.0316 µM): 102% | viability, T/C (second compound 0.0316 µM, first compound 0.1 µM): 109% | viability, T/C (second compound 0.0316 µM, first compound 0.316 µM): 110% | viability, T/C (second compound 0.0316 µM, first compound 1 µM): 110% | viability, T/C (second compound 0.0316 µM, first compound 3.16 µM): 5.99% | viability, T/C (second compound 0.0316 µM, first compound 10 µM): 12.4% | viability, T/C (second compound 0.1 µM, first compound 0.0316 µM): 95.5% | viability, T/C (second compound 0.1 µM, first compound 0.1 µM): 90.5% | viability, T/C (second compound 0.1 µM, first compound 0.316 µM): 108% | viability, T/C (second compound 0.1 µM, first compound 1 µM): 101% | viability, T/C (second compound 0.1 µM, first compound 3.16 µM): 6.65% | viability, T/C (second compound 0.1 µM, first compound 10 µM): 13.9% | viability, T/C (second compound 0.316 µM, first compound 0.0316 µM): 99.3% | viability, T/C (second compound 0.316 µM, first compound 0.1 µM): 90.8% | viability, T/C (second compound 0.316 µM, first compound 0.316 µM): 97.2% | viability, T/C (second compound 0.316 µM, first compound 1 µM): 91.3% | viability, T/C (second compound 0.316 µM, first compound 3.16 µM): 7.6% | viability, T/C (second compound 0.316 µM, first compound 10 µM): 13.9% | viability, T/C (second compound 1 µM, first compound 0.0316 µM): 76.9% | viability, T/C (second compound 1 µM, first compound 0.1 µM): 70.5% | viability, T/C (second compound 1 µM, first compound 0.316 µM): 76.8% | viability, T/C (second compound 1 µM, first compound 1 µM): 82.1% | viability, T/C (second compound 1 µM, first compound 3.16 µM): 6.13% | viability, T/C (second compound 1 µM, first compound 10 µM): 17% | viability, T/C (second compound 3.16 µM, first compound 0.0316 µM): 66.9% | viability, T/C (second compound 3.16 µM, first compound 0.1 µM): 59.6% | viability, T/C (second compound 3.16 µM, first compound 0.316 µM): 64.9% | viability, T/C (second compound 3.16 µM, first compound 1 µM): 59.2% | viability, T/C (second compound 3.16 µM, first compound 3.16 µM): 4.92% | viability, T/C (second compound 3.16 µM, first compound 10 µM): 15.3% | viability, T/C (second compound 10 µM, first compound 0.0316 µM): 40.6% | viability, T/C (second compound 10 µM, first compound 0.1 µM): 43.7% | viability, T/C (second compound 10 µM, first compound 0.316 µM): 43.6% | viability, T/C (second compound 10 µM, first compound 1 µM): 38.2% | viability, T/C (second compound 10 µM, first compound 3.16 µM): 1.94% | viability, T/C (second compound 10 µM, first compound 10 µM): 7.42%
